Assay results: US20060292073A1, “Stereoselective Synthesis of Amino Acid Analogs for Tumor Imaging” (priority 2005, published 2006)

How the values were obtained:
A549 Lung tumor cells = test: Amino acid uptake assay in vitro, A549 tumor cells ± transporter inhibitors; type: cell-based, human; details: 30 minutes incubation
Method: (§1) The tumor cells were initially grown as monolayers in T-flasks containing Dulbecco's Modified Eagle's Medium (DMEM) under humidified incubator conditions (37° C., 5% CO2/95% air). The growth media were supplemented with 10% fetal calf serum and antibiotics (10,000 units/ml penicillin and 10 mg/ml streptomycin). The growth media were replaced three times per week, and the cells were passaged so the cells would reach confluency in a week's time.
(§2) When the monolayers were confluent, cells were prepared for experimentation in the following manner. Growth media were removed from the T-flask, and the monolayer cells were exposed to 1× trypsin:EDTA for ˜1 minute to weaken the protein attachments between the cells and the flask. The flask was then slapped, causing the cells to release. Supplemented media were added to inhibit the proteolytic action of the trypsin, and the cells were aspirated through an 18 Ga needle until they were monodispersed. A sample of the cells was counted under a microscope using a hemocytometer, and the live/dead fraction estimated through trypan blue staining (>98% viability). The remainder of the cells was placed into a centrifuge tube, centrifuged at 75×g for 5 minutes, and the supernatant was removed. The cells were then resuspended in amino-acid/serum-free DMEM salts.
(§3) In this study, approximately 4.55×10^5 cells were exposed to either [^18F]10 (anti-FACBC) or [^18F]15 (syn-FACBC, 5 μCi) in 3 ml of amino acid free media ±transporter inhibitors (10 mM) for 30 minutes under incubator conditions in 12×75 mm glass vials. Each assay condition was performed in duplicate. After incubation, cells were twice centrifuged (75×g for 5 minutes) and rinsed with ice-cold amino-acid/serum-free DMEM salts to remove residual activity in the supernatant. The vials were placed in a Packard Cobra II Auto-Gamma counter, the raw counts decay corrected, and the activity per cell number determined. The data from these studies (expressed as percent uptake relative to control) were graphed using Excel, with statistical comparisons between the groups analyzed using a 1-way ANOVA (GraphPad Prism software package).
(§4) To test the hypothesis that [^18F]10 and [^18F]15 enter cells predominantly via the L-type amino acid transport system, amino acid uptake assays using cultured 9L gliosarcoma and a variety of human cancer cell lines in the presence and absence of two well-described inhibitors of amino acid transport were performed. […] The A- and L-type amino acid transport systems have been implicated in the in vivo uptake of radiolabeled amino acids used for tumor imaging.

U87 Glioma tumor cells = test: Amino acid uptake assay in vitro, U87 tumor cells ± transporter inhibitors; type: cell-based, human; details: 30 minutes incubation
Method: as §1, §2, §3, §4

[1] = tested on: SKOV3 Ovarian tumor cells; test: Amino acid uptake assay in vitro, SKOV3 tumor cells ± transporter inhibitors; type: cell-based, human; details: 30 minutes incubation
Method: as §1, §2, §3, §4

[2] = tested on: 9L gliosarcoma cells and a variety of human cancer cell lines; test: Amino acid uptake assay in vitro as summarised in text; type: cell-based, rat; human; details: for intracellular accumulation: absence of inhibitors, after 30 minutes of incubation; for amino acid transport system used for cell entry: based on inhibition of uptake in the presence of BCH
Method: as §1, §2, §3, §4

[3] = tested on: MB 468 Breast tumor cells; test: Amino acid uptake assay in vitro, MB 468 tumor cells ± transporter inhibitors; type: cell-based, human; details: 30 minutes incubation
Method: as §1, §2, §3, §4

[4] = tested on: 9L gliosarcoma tumor / contralateral normal brain; test: Rodent biodistribution in rats implanted intracranially with 9L gliosarcoma cells; type: in vivo, male Fischer rats; details: for retention of radioactivity in tumor tissue: 60 minutes after intravenous injection, intracranial 9L tumor; for Ratios of tumor uptake to normal brain uptake: at 60 and 120 minutes after intravenous injection, printed as x:1
Method: All animal experiments were carried out under humane conditions and were approved by the Institutional Animal Use and Care Committee (IUCAC) at Emory University. Rat 9L gliosarcoma cells were implanted into the brains of male Fischer rats. Briefly, anesthetized rats placed in a stereotactic head holder were injected with a suspension of 4×10^4 rat 9L gliosarcoma cells (1×10^7 per mL) in a location 3 mm right of midline and 1 mm anterior to the bregma at a depth of 5 mm deep to the outer table. The injection was performed over the course of 2 minutes, and the needle was withdrawn over the course of 1 minute to minimize the backflow of tumor cells. The burr hole and scalp incision were closed, and the animals were returned to their original colony after recovering from the procedure. Intracranial tumors developed that produced weight loss, apathy and hunched posture in the tumor-bearing rats, and the animals were used at 17-19 days after implantation. Of the 30 animals implanted with tumor cells, 25 developed tumors visible to the naked eye upon dissection and were used in the study. FIGS. 1-3 show the results of these studies.
The tissue distribution of radioactivity was determined in 16 normal male Fischer 344 rats (200-250 g) after intravenous injection of ˜85 μCi of [^18F]10 or [^18F]15 in 0.3 mL of sterile water. The animals were allowed food and water ad libitum before the experiment. The tail vein injections were performed in awake animals using a RTV-190 rodent restraint device (Braintree Scientific) to avoid mortality accompanying anesthesia in the presence of an intracranial mass. Groups of four rats were killed at 5 minutes, 30 minutes, 60 minutes and 120 minutes after injection of the dose. The animals were dissected, and selected tissues were weighed and counted along with dose standards in a Packard Cobra II Auto-Gamma Counter. The raw counts were decay corrected, and the counts were normalized as the percent of total injected dose per gram of tissue (% ID/g). A comparison of the uptake of activity in tumor tissue, […] at each time point was analyzed using a 1-way ANOVA (GraphPad Prism software package). FIGS. 1-3 below show the results of these studies.

[5] = tested on: DU145 Prostate tumor cells; test: Amino acid uptake assay in vitro, DU145 tumor cells ± transporter inhibitors; type: cell-based, human; details: 30 minutes incubation
Method: as §1, §2, §3, §4

## NC1(C(=O)O)CC([18F])C1 (stereo not drawn) [Anti-[^18F]FACBC, trans-(anti-) 1-amino-3-[^18F]fluorocyclobutane-1-carboxylic acid]
A549 Lung tumor cells; A549, BCH 10 mM
  Uptake in tumor cells expressed as percent uptake relative to control: 2.69%
A549 Lung tumor cells; A549, MeAIB 10 mM
  Uptake in tumor cells expressed as percent uptake relative to control: 11.02%
A549 Lung tumor cells; A549, no inhibitor
  Uptake in tumor cells expressed as percent uptake relative to control: 12.17%
U87 Glioma tumor cells; U87, BCH 10 mM
  Uptake in tumor cells expressed as percent uptake relative to control: 1.51%
U87 Glioma tumor cells; U87, MeAIB 10 mM
  Uptake in tumor cells expressed as percent uptake relative to control: 3.45%
U87 Glioma tumor cells; U87, no inhibitor
  Uptake in tumor cells expressed as percent uptake relative to control: 3.41%
[1]; SKOV3, BCH 10 mM
  Uptake in tumor cells expressed as percent uptake relative to control: 1.44%
[1]; SKOV3, MeAIB 10 mM
  Uptake in tumor cells expressed as percent uptake relative to control: 6.39%
[1]; SKOV3, no inhibitor
  Uptake in tumor cells expressed as percent uptake relative to control: 4.68%
[2]
  intracellular accumulation: 0.43 % of the initial dose per million cells
  amino acid transport system used for cell entry: substrates for the L-type amino acid transport system
[3]; MB 468, BCH 10 mM
  Uptake in tumor cells expressed as percent uptake relative to control: 4.43%
[3]; MB 468, MeAIB 10 mM
  Uptake in tumor cells expressed as percent uptake relative to control: 14.80%
[3]; MB 468, no inhibitor
  Uptake in tumor cells expressed as percent uptake relative to control: 15.51%
[4]
  retention of radioactivity in tumor tissue: high
  Ratios of tumor uptake to normal brain uptake: 6.5
[5]; DU145, BCH 10 mM
  Uptake in tumor cells expressed as percent uptake relative to control: 4.16%
[5]; DU145, MeAIB 10 mM
  Uptake in tumor cells expressed as percent uptake relative to control: 13.90%
[5]; DU145, no inhibitor
  Uptake in tumor cells expressed as percent uptake relative to control: 16.06%

## N[C@]1(C(=O)O)C[C@H]([18F])C1 [Syn-[^18F]FACBC, syn-[^18F]1-amino-3-fluorocyclobutane-1-carboxylic acid]
A549 Lung tumor cells; A549, BCH 10 mM
  Uptake in tumor cells expressed as percent uptake relative to control: 3.85%
A549 Lung tumor cells; A549, MeAIB 10 mM
  Uptake in tumor cells expressed as percent uptake relative to control: 9.61%
A549 Lung tumor cells; A549, no inhibitor
  Uptake in tumor cells expressed as percent uptake relative to control: 11.91%
U87 Glioma tumor cells; U87, BCH 10 mM
  Uptake in tumor cells expressed as percent uptake relative to control: 5.00%
U87 Glioma tumor cells; U87, MeAIB 10 mM
  Uptake in tumor cells expressed as percent uptake relative to control: 14.80%
U87 Glioma tumor cells; U87, no inhibitor
  Uptake in tumor cells expressed as percent uptake relative to control: 24.77%
[1]; SKOV3, BCH 10 mM
  Uptake in tumor cells expressed as percent uptake relative to control: 5.87%
[1]; SKOV3, MeAIB 10 mM
  Uptake in tumor cells expressed as percent uptake relative to control: 8.48%
[1]; SKOV3, no inhibitor
  Uptake in tumor cells expressed as percent uptake relative to control: 11.67%
[2]
  intracellular accumulation: 0.50 % of the initial dose per million cells
  amino acid transport system used for cell entry: substrates for the L-type amino acid transport system
[3]; MB 468, BCH 10 mM
  Uptake in tumor cells expressed as percent uptake relative to control: 10.93%
[3]; MB 468, MeAIB 10 mM
  Uptake in tumor cells expressed as percent uptake relative to control: 28.25%
[3]; MB 468, no inhibitor
  Uptake in tumor cells expressed as percent uptake relative to control: 33.53%
[4]
  retention of radioactivity in tumor tissue: high
  Ratios of tumor uptake to normal brain uptake: 5.3
[5]; DU145, BCH 10 mM
  Uptake in tumor cells expressed as percent uptake relative to control: 9.11%
[5]; DU145, MeAIB 10 mM
  Uptake in tumor cells expressed as percent uptake relative to control: 17.16%
[5]; DU145, no inhibitor
  Uptake in tumor cells expressed as percent uptake relative to control: 20.27%
